According to US20120207704A1 (priority 2011, published 2012):

Test system: DU-145 cells
Assay type: cell-based, human

C=C1[C@@H](C)[C@H]2[C@H](Cc3ccccc3)NC(=O)[C@]23[C@H](OC(C)=O)/C=C/[C@@](C)(O)C(=O)[C@@H](C)C/C=C/[C@H]3[C@@H]1O [Cytochalasin-D]
Effect on cell migration: did not migrate | Relative Wound Density at 24 Hours, Mean: 3.3 ± 0.2 | Relative Wound Density at 24 Hours, Percent Relative to Media: 4%
